According to article PMC6407204, “Oral administration of the cannabigerol derivative VCE-003.2 promotes subventricular zone neurogenesis and protects against mutant huntingtin-induced neurodegeneration” (Translational Neurodegeneration, 2019):

What was measured:
[1] = test system: C-reactive protein and pentraxins 2, 3; assay: Plasma biomarkers, cytokine and adipokine proteome arrays; type: in vivo, C57BL/6 N mice; conditions: pooled plasma, oral treatment, htt94Q mice
Procedure: Plasma samples from wild-type and mutant huntingtin-expressing C57BL/6 N mice were pooled (n = 6 animals per group) and analyzed for cytokine and adipokine expression. The Proteome Profiler Mouse XL Cytokine Array and the Proteome Profiler Mouse Adipokine Array (R&D Systems) were used according to the manufacturer’s protocols to obtain protein expression profiles using 100 μl plasma samples. Spot density was determined using Quick Spots image analysis software (R&D Systems).
Supplementary file 40035_2019_148_MOESM5_ESM.pdf: Additional file 5: Effect of oral VCE-003.2 on plasmatic biomarkers. Plasma samples from the indicated groups of animals (n = 6) were pooled and subjected to mouse cytokine array (ARY028; R&D Systems) and mouse adipokine array (ARY013; R&D Systems) analysis. The relative expression of the indicated biomarkers is shown. (PDF 338 kb)

adipogenic = conditions: compared with full PPARγ-agonists; cited from earlier work
liver = assay: Hepatotoxicity of chronic administration, liver hematoxylin-eosin staining; type: in vivo; conditions: mouse, data not shown
Procedure: As VCE-003.2 was previously shown to exert a neuroprotective action in preclinical HD models, and considering its pro-neurogenic profile, we evaluated the pathophysiological impact and potential therapeutic value of VCE-003.2 after oral administration. Pharmacokinetic analyses were performed in rats after oral administration of VCE-003.2 (50 mg/kg) dissolved in sesame oil. Plasma VCE-003.2 levels peaked at 8 h (Tmax) and then slowly declined to basal levels. […] We also investigated some critical ADME/Tox parameters. […] We also determined the potential hepatotoxicity of chronic VCE-003.2 administration by hematoxylin-eosin staining. […] We also determined the impact of VCE-003.2 administration on peripheral biomarkers by quantifying the levels of cytokines and other soluble mediators.

[2] = test system: 3-NP model of striatal neurodegeneration; assay: 3-Nitropropionic acid (3-NP) model of striatal neurodegeneration; type: in vivo, C57BL/6 N male mice; conditions: 10 mg/kg oral gavage every 24 h, sesame oil
Procedure: Supplementary file 40035_2019_148_MOESM6_ESM.pdf: Additional file 6: 3-Nitroproprionic acid model of striatal neurodegeneration. 16-week- old C57BL/6 N male mice (Harlan Ibérica, Barcelona, Spain) were subjected to seven intraperitoneal (i.p.) injections of 50 mg/kg 3-NP (one injection each every 12 h prepared in phosphate-buffered saline (PBS)]. 3-NP-treated animals and their respective non-lesioned controls (injected with PBS) were used for pharmacological studies with VCE-003.2. Treatments consisted of oral gavage every 24 h with VCE-003.2 at a dose of 10 mg/kg using sesame oil as vehicle. 12 h after the last injection of 3-NP motor activity, hindlimb clasping and kyphosis were evaluated as previously described. Animals were euthanized at the indicated time after huntingtin-AAV infection or 12 h after the last injection of 3NP and their brains removed. Statistical analysis: One-way ANOVA followed by the Tuckey’s post hoc test was used to determine the statistical significance. All the in vivo data were expressed as mean ± SEM. […]

[3] = Microsomal metabolic stability
Procedure: The final incubation volume was 25 μL. […] The reactions were stopped by the addition of 50 μL methanol containing internal standard at the appropriate time points. The incubation plates were centrifuged at 2500 rpm for 20 min at 4 °C to precipitate the protein. Following protein precipitation, the sample supernatants were analyzed using LC-MS/MS. From a plot of ln peak area ratio (compound peak area/internal standard peak area) against time, the gradient of the line was determined. Subsequently, half-life and intrinsic clearance was calculated using the equations below: Elimination rate constant (k) = (− gradient).

Compound: CCCCCC1=C(NCC)C(=O)C(CC=C(C)CCC=C(C)C)=C(O)C1=O [VCE-003.2, 2-(3,7-dimethyl-octa-2,6-dienyl)-6-ethylamino-3-hydroxy-5-pentyl-(1,4) benzoquinone]
- plasma neuroinflammation biomarkers increased by htt94Q (C-reactive protein, pentraxins 2, 3) [1]: reverted
- adipogenic effect (adipogenic): less adipogenic
- hepatotoxicity, liver histology (liver): did not show any evidence of fibrosis, steatosis, vacuolization, ballooning or inflammation
- neuroprotection and anti-inflammatory effect in 3-NP model [2]: neuroprotective and anti-inflammatory
- intrinsic clearance in vitro (in words) ([3]; human liver microsomes): rapid intrinsic clearance
- half-life ([3]; human, microsomes, pH 7.4): 10.6 min
- microsomal CLint ([3]; human, microsomes, pH 7.4): 131 µL/min/mg
